From US9145398B2, “Methods of treating CXCR4-expressing cancers” (University of Louisville Research Foundation, Inc., priority 2010, dated 2015)
“Also recorded” adds a separate entry of the source.

Experiments:
[1] = Test for toxicity in mice; assay type: in vivo; conditions: i.p. 5 mg/kg, then 20 or 40 mg/kg two days later; observed over 3 weeks
Protocol: Test for Toxicity: Mice were treated by intra-peritoneal injections of three of compounds I-28, I-36, and I-38 at the first dose of 5 mg/kg of body weight, followed by a second injection of either 20 mg/kg of body weight or 40 mg/kg of body weight two days later.

[2] = molecular target: T1, CXCR4 (Homo sapiens, UniProt P61073); assay: CXCL12-mediated chemotaxis of THP-1 cells; assay type: cell-based; conditions: 10 μM compound, CXCL12 500 ng/ml
T1 construct: endogenous in cells; host or cells: THP-1 cells (ATCC TIB-202)
T1 sequence (P61073 whole entry): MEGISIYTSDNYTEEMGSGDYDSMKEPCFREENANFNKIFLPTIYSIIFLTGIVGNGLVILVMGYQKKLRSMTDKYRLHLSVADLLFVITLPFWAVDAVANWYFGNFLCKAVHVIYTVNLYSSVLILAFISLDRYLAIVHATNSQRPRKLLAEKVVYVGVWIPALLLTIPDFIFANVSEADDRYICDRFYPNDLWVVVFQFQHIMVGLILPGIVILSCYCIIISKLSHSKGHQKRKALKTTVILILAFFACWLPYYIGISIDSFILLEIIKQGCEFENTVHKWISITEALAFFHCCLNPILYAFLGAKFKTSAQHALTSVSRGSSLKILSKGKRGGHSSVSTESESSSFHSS
Protocol: Data are presented as a percentage of THP-1 cells (obtainable from ATCC accession number TIB-202) migrating toward a CXCL12 gradient of 500 ng/ml, normalized to the control, which was the CXCL12 only treatment. All assays were performed a minimum of four times with inhibitor concentration of 10 μM, except for I-61 and I-62 which used an inhibitor concentration of 1 μM. Error bars represent the standard deviation of the mean.
(§1) Chemotaxis assays were performed with selected compounds at a concentration of 10 μM. Chemokines signaling via CXCR4 (CXCL12 at concentration of 500 ng/ml) and CCR5 (RANTES at concentration of 300 ng/ml) were utilized to assess the receptor specificity of each compound. Each pair of columns for a lane corresponds to two separate representative experiments. The negative control samples (lanes 2 and 7) correspond to the chemotaxis without CXCL12 or RANTES. The CXCL12 and RANTES lanes are positive controls corresponding to CXCL12 alone (lanes 1 and 6) or RANTES alone (lanes 4 and 9) mediated chemotaxis. The experimental samples (lanes 3, 5, 8, and 10) correspond to CXCL12- or RANTES-mediated chemotaxis when the cells are co-incubated with I-38 or I-46.

[3] = test system: 300.19 cells; assay: Cytotoxicity assay, propidium iodide based flow cytometry; assay type: cell-based; conditions: 50 μM test compound
Protocol: Cytotoxicity Assay Method: To determine the potential for test compound cytotoxicity to influence cell intracellular calcium mobilization and chemotaxis, cell cytotoxicity was assessed using propidium iodide (PI) based flow cytometry. Propidium iodine is impermeable to intact cell membranes and thus its lack of intercalation into DNA (which increases PI fluorescence) is a positive indicator of cell viability. Cytotoxicity values are presented as percentage of cells staining positive for PI. Lower values of fluorescence indicate less cytotoxicity. All assays were performed a minimum of four times; error bars represent the standard deviation of the mean.

[4] = molecular target: T2, hCXCR4-GFP (Homo sapiens, UniProt P61073); assay: Intracellular calcium mobilization assay, hCXCR4-GFP expressing 300.19 cells, CXCL12; assay type: cell-based; parameters: IC50 of intracellular calcium mobilization, CXCR4; other: CXCL12-mediated; other: 50 μM test compound; normalized Δ fluorescence (CXCR4, intracellular calcium mobilization); other: 50 μM test compound, 60 seconds pretreatm; conditions: 50 μM test compound
T2 sequence (P61073 whole entry): as above
Protocol: (§2) Intracellular Calcium Mobilization Assay Method: The intracellular calcium mobilization assay used 300.19 cells which stably expressed hCXCR4-GFP, as described previously in Pello et al. (2008). Cells were loaded with INDO-I and then pretreated with the 50 μM of the test compound for 60 seconds prior to stimulation of intracellular calcium mobilization with an optimized concentration of CXCL12. […] The value Δ florescence is the difference between (a) the fluorescence ratio from cells before exposure to CXCL12 at its optimized concentration and (b) the fluorescence ratio from cells following stimulation with the optimized concentration of CXCL12. Decreases in Δ florescence correspond to decreases in intracellular calcium mobilization, and therefore, decreased signaling. As CXCL12 concentration was optimized for each test compound, results are presented as normalized Δ florescence which is Δ fluorescence divided by the fluorescence ratio of optimized CXCL12-only stimulation. In some instances, the IC50 concentration (concentration at which intracellular calcium mobilization is reduced to 50% of the Δ fluorescence of the CXCL12 plus DMSO control) of the test compounds was determined. All assays were performed a minimum of four times; error bars represent the standard deviation of the mean.

[5] = molecular target: T3, CCR5 (Homo sapiens, UniProt P51681); assay: RANTES-mediated chemotaxis of THP-1 cells; assay type: cell-based; conditions: 10 μM compound, RANTES 300 ng/ml
T3 construct: endogenous in cells; host or cells: THP-1 cells
T3 sequence (P51681 whole entry): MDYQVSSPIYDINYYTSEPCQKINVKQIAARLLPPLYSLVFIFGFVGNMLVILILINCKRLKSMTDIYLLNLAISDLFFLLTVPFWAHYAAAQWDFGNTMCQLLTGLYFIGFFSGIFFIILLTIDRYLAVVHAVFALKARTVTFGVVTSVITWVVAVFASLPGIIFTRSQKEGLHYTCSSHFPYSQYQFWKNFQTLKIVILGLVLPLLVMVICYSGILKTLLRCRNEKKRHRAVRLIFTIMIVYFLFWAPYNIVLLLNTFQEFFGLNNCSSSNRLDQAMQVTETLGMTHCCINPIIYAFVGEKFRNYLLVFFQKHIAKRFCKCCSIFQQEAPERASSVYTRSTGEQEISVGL
Protocol: as §1

[6] = molecular target: T2, hCXCR4-GFP; assay: Chemotaxis assay, hCXCR4-GFP expressing 300.19 cells, CXCL12; assay type: cell-based; conditions: hCXCR4-GFP 300.19 cells, CXCL12
Protocol: (§3) Cells were suspended in chemotaxis buffer (RPMI 1640, 1% fetal bovine serum, 1 mM HEPES) at a concentration of 1×10^7 cells per ml. Cell chemotaxis was determined by examining the migration of the 300.19 cells in response to administration of 50 μM test compound plus an optimized concentration of CXCL12 using a chemotaxis assay that was previously described in Basu et al. (Basu et al., Critical role for polar residues in coupling leukotriene B4 binding to signal transduction in BLT1, J. Biol. Chem. (2007) Vol. 282, pp. 10005-17). 100 μL of 300.19 cells from the above cell suspension were placed in the upper chamber of a Transwell support (Corning Costar, Cambridge, Mass.) and were separated by a 5 micron filter from a bottom chamber containing 50 μM test compound plus the optimized concentration of CXCL12 in a final bottom chamber volume of 600 μl. After 3 h of incubation at 37° C. in 5% CO2, the upper chamber was removed and cells in the lower chamber were counted in a Bürker chamber. Cell counts for all samples were normalized to a CXCL12 plus DMSO control and results are reported using this normalized measure, referred to herein as the chemotaxis index. In some instances, the IC50 concentration (i.e., the concentration at which the chemotaxis index is reduced to 50% of the chemotaxis index of the CXCL12 plus DMSO control) of the test compounds was determined. All assays were performed a minimum of four times; error bars represent the standard deviation of the mean.

[7] = molecular target: T4, BLT1 (Homo sapiens, UniProt Q15722); assay: Chemotaxis assay, cells expressing BLT1, LTB4; assay type: cell-based; conditions: 50 μM test compound, LTB4-induced
T4 sequence (Q15722 whole entry, species assumed): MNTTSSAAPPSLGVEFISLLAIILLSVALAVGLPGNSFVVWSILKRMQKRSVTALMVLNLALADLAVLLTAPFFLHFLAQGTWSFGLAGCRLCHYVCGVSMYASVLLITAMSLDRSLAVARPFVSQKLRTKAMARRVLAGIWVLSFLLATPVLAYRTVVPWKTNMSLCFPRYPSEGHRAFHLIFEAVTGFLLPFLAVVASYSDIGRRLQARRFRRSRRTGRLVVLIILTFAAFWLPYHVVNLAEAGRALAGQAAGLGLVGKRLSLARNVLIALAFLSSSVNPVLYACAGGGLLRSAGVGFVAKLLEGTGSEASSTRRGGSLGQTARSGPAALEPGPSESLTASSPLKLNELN
Protocol: as §3
To examine specificity of some of the compounds for CXCR4, their activity was tested against a non-family member class A G protein-coupled receptor, BLT1. […] I-38 and I-43 inhibited BLT1-mediated chemotaxis (0.23) and (0.045) to about the same extent as CXCR4-mediated chemotaxis (0.21) and (0.064), respectively.

[8] = test system: TC-1 tumor cells; assay type: in vivo; conditions: 5 mg/kg i.p. every day for 21 days
Description: Development of Animal Model for CXCR4 Dependent Cancer Metastasis in Lungs: To establish a CXCR4 dependent lung tumor metastasis model, we first screened several cancer cell lines that are known to metastasize to lungs in mice models to determine which cancer cell lines endogenously express CXCR4 receptor. The mice cell lines screened were Lewis lung carcinoma, B16F10 melanoma, and TC-1 cervical carcinoma. Mice cell lines were screened using flow cytometry-based surface receptor staining using a fluorochrome labeled antibody to mouse CXCR4 receptor. […] The TC-1 cell line was generated by transfection of murine lung squamous epithelial cells by Human pappillomavirus (HPV) oncogenes E6, E7, and activated Ras.
5 mg/kg body weight of AMD3100, I-28, I-36, or I-38 were also injected at the same dose intra-peritoneal (i.p.) every day for 21 days starting from the day before the tumor cell injection. Mice were sacrificed and lungs were perfused and collected on day 21 post tumor challenge. Lungs were stored in formalin for 16 hrs and then transferred into 70% ethanol until the lung lobes became lucid. All five lung lobes were separated. Tumors were counted using a magnifying glass or a microscope. Tumor sizes were measured using a digital caliper. The total number of tumors counted in all five lung lobes of an individual mouse is reported as the tumor incidence. Mean tumor sizes were added together to calculate cumulative tumor size, which is reported as the tumor burden for each mouse.

[9] = molecular target: T4, BLT1; assay: Intracellular calcium mobilization assay, cells expressing BLT1, LTB4; assay type: cell-based; conditions: 50 μM test compound, LTB4
Protocol: as §2
At 50 μM test compound concentrations in BLT1-expressing cells, I-44 (0.040) and I-46 (0.017) inhibited intracellular calcium mobilization.

| SMILES | apparent toxicity (loss of body weight, signs of physiological distress) [1] | inhibition of CXCL12-mediated migration of THP-1 cells [2] | cytotoxicity, percentage of cells staining positive for PI [3] | inhibition of intracellular calcium mobilization (in words) [4] | inhibition of RANTES-mediated migration of THP-1 cells [5] | IC50 [6] | chemotaxis index (BLT1-mediated) [7] | efficacy compared with AMD3100 [8] | reduction of average tumor burden [8] | TC-1 metastatic tumor incidence and burden in lungs ([8]; versus PBS or Vehicle controls) | normalized Δ fluorescence (BLT1, intracellular calcium mobilization) [9] | normalized Δ fluorescence (CXCR4, intracellular calcium mobilization) ([4]; 60 seconds pretreatment, optimized CXCL12 (AMD3100 concentration not given)) |
| --- | --- | --- | --- | --- | --- | --- | --- | --- | --- | --- | --- | --- |
| O=C(CO/N=C/c1ccccc1)N/N=C1\C(=O)N(CN(Cc2ccccc2)Cc2ccccc2)c2ccccc21 [Compound I-38, acetic acid, 2-[[(phenylmethylene)amino]oxy]-,2-[1-[[bis(phenylmethyl)amino]methyl]-1,2-dihydro-2-oxo-3H-indol-3-ylidene]hydrazide] | did not induce any apparent toxicity | specifically inhibit CXCR4 mediated migration | 7.93% | does not significantly inhibit intracellular calcium mobilization; also recorded: little reduction of intracellular calcium mobilization | specifically inhibit CXCR4 mediated migration | 5 µM | 0.23 | more effective than AMD3100 | more than 60% | reduced mice TC-1 metastatic tumor incidence and burden in lungs |  |  |
| O=C(Nc1ccc2ccc3ccc(NC(=O)c4ccccc4)nc3c2n1)c1ccccc1 [Compound I-46, N,N′-1,10-phenanthroline-2,9-diylbis-benzamide] |  | inhibit migration to both chemokines |  |  | inhibit migration to both chemokines |  |  |  |  |  | 0.017 | 0.067 |
